Target: T1, human RIP1 kinase domain (2-375) (Homo sapiens, UniProt Q13546)
T1 construct: Purified human RIP1 kinase domain (2-375) (50 nM); made in house; host or cells: baculovirus-infected insect cells
T1 sequence (Q13546 2-375): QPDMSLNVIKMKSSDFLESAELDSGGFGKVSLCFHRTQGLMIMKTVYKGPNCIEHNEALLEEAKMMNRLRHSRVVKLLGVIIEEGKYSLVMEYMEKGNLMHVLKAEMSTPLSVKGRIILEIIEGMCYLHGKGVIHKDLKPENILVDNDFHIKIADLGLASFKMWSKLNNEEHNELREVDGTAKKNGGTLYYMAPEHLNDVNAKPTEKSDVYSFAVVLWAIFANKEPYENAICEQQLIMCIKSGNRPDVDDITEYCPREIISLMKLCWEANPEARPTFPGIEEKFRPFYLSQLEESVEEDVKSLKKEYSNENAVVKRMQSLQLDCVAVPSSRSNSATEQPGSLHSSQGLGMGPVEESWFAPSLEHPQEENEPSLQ
Assay: RIP1 kinase inhibition biochemical assay (Transcreener ADP, fluorescence polarization)
Details: Ki app (Morrison tight-binding fit); 50 nM enzyme, 50 uM ATP, 2 hours incubation
Procedure: RIP1 Kinase Inhibition Assays (Biochemical Assay)
The compounds of the present invention were tested for their capacity to inhibit RIP1K activity as described below.
The ability of the receptor interacting protein kinase (RIPK1) to catalyze the hydrolysis of adenosine-5′-triphosphate (ATP) is monitored using the Transcreener ADP (adenosine-5′-diphosphate) assay (BellBrook Labs). Purified human RIP1 kinase domain (2-375) (50 nM) derived from a baculovirus-infected insect cell expression system is incubated with test compounds for 2 hours in 50 mM Hepes buffer (pH 7.5) containing 30 mM MgCl2, 1 mM dithiothreitol, 50 uM ATP, 0.002% Brij-35, and 0.5% dimethyl sulfoxide (DMSO). Reactions are quenched by the addition of 1× Bell Brooks Stop buffer B (20 mM Hepes (ph7.5), 40 mM ethylenediaminetetraacetic acid and 0.02% Brij-35) containing an additional 12 mM EDTA and 55 ug/mL ADP2 antibody and 4 nM ADP-AlexaFluor® 633 tracer. The tracer bound to the antibody is displaced by the ADP generated during the RIP1K reaction, which causes a decrease in fluorescence polarization that is measured by laser excitation at 633 nm with a FP microplate reader M1000. Fractional activity was plotted against test article concentration. Using Genedata Screener software (Genedata; Basel, Switzerland), the data were fit to the tight-binding apparent inhibition constant (Ki^app) Morrison equation [Williams, J. W. and Morrison, J. F. (1979) The kinetics of reversible tight-binding inhibition. Methods Enzymol 63: 437-67]. The following equation was used to calculate fractional activity and Ki^app:
[formula] where [E]T and [I]T are the total concentrations of active enzyme and test article, respectively.
Exemplary compounds of the present invention are provided in Table 1 along with their physiochemical characterization and in vitro RIP1 kinase inhibitory activity data. “Method” in the first column of each table refers to the synthetic method(s) used to prepare each compound as shown in the Examples above. In certain examples, chiral column retention times (min) are provided for certain stereoisomers. Unless otherwise specified, the stereochemistry shown in each structure represents relative configuration of a single stereoisomer, and absolute configuration (i.e., “R” and/or “S”) is arbitrarily assigned. In some embodiments, where the Method is described to include the separation of stereoisomers, a single stereoisomer of a compound of Table 1 is provided.

Compound	Ki [nM]
F[C@H]1C[C@@H](c2ccccc2)n2nc([C@H](F)C34CC(C3)C4)nc21 (single isomer, unassigned) [Example 45]	230
F[C@H]1C[C@@H](c2ccccc2)n2nc(C3CC3C(F)(F)F)nc21 (stereo partly drawn) [Example 33, (5S,7S)-7-fluoro-5-phenyl-2-(2-(trifluoromethyl)cyclopropyl)-6,7-dihydro-5H-pyrrolo[1,2-b][1,2,4]triazole]	34
F[C@H]1C[C@@H](c2ccccc2)n2nc(CC3CC3(F)F)nc21 (stereo partly drawn) [Example 20, (5S,7S)-2-[(2,2-difluorocyclopropyl)methyl]-7-fluoro-5-phenyl-6,7-dihydro-5H-pyrrolo[1,2-b][1,2,4]triazole]	4
N#Cc1ccn(-c2nc3n(n2)[C@H](c2ccccc2)C[C@@H]3F)n1 (single isomer, unassigned) [Example 53]	280
CCCc1nc2n(n1)[C@@H](c1ccccc1)C[C@H]2F (racemic) [Example 10, Cis-(5S,7S)-7-fluoro-5-phenyl-2-propyl-6,7-dihydro-5H-pyrrolo[1,2-b][1,2,4]triazole]	78
F[C@H]1C[C@@H](c2ccccc2)n2nc(-n3cnc(Cl)c3)nc21 (single isomer, unassigned) [Example 75]	100
O[C@@H](c1cc2n(n1)[C@@H](c1ccccc1)C[C@H]2F)C1CC1 (single isomer, unassigned) [Example 114]	100
F[C@H]1C[C@@H](c2ccccc2)n2nc(-n3ccc(C(F)(F)F)n3)nc21 (single isomer, unassigned) [Example 64]	610
C[C@H]1C[C@@H]1c1nc2n(n1)[C@H](c1ccccc1)C[C@@H]2F (single isomer, unassigned) [Example 95]	39
Cc1cnn(-c2nc3n(n2)[C@H](c2ccccc2)C[C@@H]3F)c1 (single isomer, unassigned) [Example 25]	17
Cn1ccc(-c2nc3n(n2)[C@H](c2ccccc2)C[C@@H]3F)n1 (single isomer, unassigned) [Example 19]	1100
N#CC1CC1c1nc2n(n1)[C@H](c1ccccc1)C[C@@H]2F (mixture of isomers) [Example 16, Trans-2-[(5S,7S)-7-fluoro-5-phenyl-6,7-dihydro-5H-pyrrolo[1,2-b][1,2,4]triazol-2-yl]cyclopropanecarbonitrile]	51
CCc1nc2n(n1)[C@H](c1ccccc1)C[C@@H]2F [Example 36, (5S,7S)-2-ethyl-7-fluoro-5-phenyl-6,7-dihydro-5H-pyrrolo[1,2-b][1,2,4]triazole]	49
FC1CC(c2ccccc2)n2nc(C(F)(F)F)nc21 (racemic) [Example 12, Cis-7-fluoro-5-phenyl-2-(trifluoromethyl)-6,7-dihydro-5H-pyrrolo[1,2-b][1,2,4]triazole]	130
OC(c1nc2n(n1)[C@H](c1ccccc1)C[C@@H]2F)[C@H]1C[C@@H]1F (stereo partly drawn) [Example 106, [(1R,2S)-2-fluorocyclopropyl]-[(5S,7S)-7-fluoro-5-phenyl-6,7-dihydro-5H-pyrrolo[1,2-b][1,2,4]triazol-2-yl]methanol]	110
CC#Cc1nc2n(n1)[C@H](c1ccccc1)C[C@@H]2F [Example 44, (5S,7S)-7-fluoro-5-phenyl-2-prop-1-ynyl-6,7-dihydro-5H-pyrrolo[1,2-b][1,2,4]triazole]	890
Fc1ccccc1[C@@H]1CCc2nc(CC3CC3)nn21 (single isomer, unassigned) [Example 98]	190
F[C@@H]1C[C@H](c2ccccc2)n2nc(C(F)(F)C3CC3)nc21 (racemic) [Example 5]	27
Fc1ccccc1[C@@H]1C[C@H](F)c2nc(C(F)(F)C3CC3)nn21 (single isomer, unassigned) [Example 104]	4
Cc1cc(C#N)nn1-c1nc2n(n1)[C@H](c1ccccc1)C[C@@H]2F (single isomer, unassigned) [Example 91]	13

Compound	Ki [nM]
F[C@@H]1C[C@H](c2ccccc2)n2nc(CCC(F)(F)F)nc21 (single isomer, unassigned) [Example 15]	1100
N#CC1CN(c2nc3n(n2)[C@H](c2ccccc2)C[C@@H]3F)C1 (single isomer, unassigned) [Example 100]	250
F[C@H]1C[C@@H](c2ccccc2)n2nc(-n3ncc4ccccc43)nc21 (racemic) [Example 73, 1-[rac-(5S,7S)-7-fluoro-5-phenyl-6,7-dihydro-5H-pyrrolo[1,2-b][1,2,4]triazol-2-yl]indazole]	6.2
FC(F)c1nc2n(n1)[C@@H](c1ccccc1)C[C@H]2F (single isomer, unassigned) [Example 118]	180
O[C@H](c1cc2n(n1)[C@@H](c1ccccc1)C[C@H]2F)C1CC1 (single isomer, unassigned) [Example 115]	81
CCOC(=O)[C@@H]1C[C@H]1c1nc2n(n1)[C@H](c1ccccc1)C[C@@H]2F (mixture of isomers) [Example 21, ethyl rac-(1R,2R)-2-[(5S,7S)-7-fluoro-5-phenyl-6,7-dihydro-5H-pyrrolo[1,2-b][1,2,4]triazol-2-yl]cyclopropanecarboxylate]	100
F[C@H]1C[C@@H](c2ccccc2)n2nc(-n3cc(Cl)cn3)nc21 [Example 60, (5S,7S)-2-(4-chloropyrazol-1-yl)-7-fluoro-phenyl-6,7-dihydro-5H-pyrrolo[1,2-b][1,2,4]triazole]	4.5
F[C@H]1C[C@@H](c2ccccc2)n2nc(-n3ccnc3)nc21 (single isomer, unassigned) [Example 66]	890
F[C@H]1C[C@@H](c2ccccc2)n2nc(-n3nnc4ccncc43)nc21 (single isomer, unassigned) [Example 83]	36
F[C@H]1C[C@@H](c2ccccc2)n2nc(C3CC3(F)F)nc21 (stereo partly drawn) [Example 28, (5S,7S)-2-(2,2-difluorocyclopropyl)-7-fluoro-5-phenyl-6,7-dihydro-5H-pyrrolo[1,2-b][1,2,4]triazole]	70
[2H][C@@](F)(c1nc2n(n1)[C@H](c1ccccc1)C[C@@H]2F)C1CC1 (single isomer, unassigned) [Example 111]	4.9
F[C@H]1C[C@@H](c2ccccc2)n2nc(C(F)(F)C34CC(C3)C4)nc21 [Example 42, (5S,7S)-2-[1-bicyclo[1.1.1]pentanyl(difluoro)methyl]-7-fluoro-5-phenyl-6,7-dihydro-5H-pyrrolo[1,2-b][1,2,4]triazole]	6
Cc1nn(-c2nc3n(n2)[C@H](c2ccccc2)C[C@@H]3F)c(N)c1C#N (single isomer, unassigned) [Example 65]	720
[2H]C([2H])(c1nc2n(n1)[C@H](c1ccccc1)C[C@@H]2F)C1CC1 (single isomer, unassigned) [Example 116]	7.3
CC[C@@H](F)c1nc2n(n1)[C@H](c1ccccc1)C[C@@H]2F (racemic) [Example 7, rac-(5S,7S)-7-fluoro-5-phenyl-2-[rac-(1R)-1-fluoropropyl]-6,7-dihydro-5H-pyrrolo[1,2-b][1,2,4]triazole]	4
COc1cnn(-c2nc3n(n2)[C@H](c2ccccc2)C[C@@H]3F)c1 (single isomer, unassigned) [Example 57]	130
F[C@H]1C[C@@H](c2ccccc2)n2nc(-n3cccn3)nc21 (single isomer, unassigned) [Example 31]	160
F[C@H]1C[C@@H](c2ccccc2)n2nc(CC3CCC3)nc21 (stereo in doubt) [Example 94, (5S,7S)-2-(cyclobutylmethyl)-7-fluoro-5-phenyl-6,7-dihydro-5H-pyrrolo[1,2-b][1,2,4]triazole]	16
F[C@H]1C[C@@H](c2ccccc2)n2nc(-n3nnc4ccccc43)nc21 (single isomer, unassigned) [Example 81]	5
F[C@H]1C[C@@H](c2ccccc2)n2nc(C#CC3CC3)nc21 [Example 43, (5S,7S)-2-(2-cyclopropylethynyl)-7-fluoro-5-phenyl-6,7-dihydro-5H-pyrrolo[1,2-b][1,2,4]triazole]	450
